In US20070154444A1, “Extracts from black yeast for whitening skin” (priority 2005, published 2007):

Tested on: UV-B induced tan of the skin
Assay: Whitening action: fading of UV-B induced tan on the backs of volunteer panelists, Minolta Chromameter reflectance
Assay type: in vivo, human
Conditions: FIG. 5; 1% extract or 2% kojic acid in Example 4 composition; 2 mg/cm^2 once a day; nine panelists
Method: A comparative study is done to determine the whitening efficacy of an Exophiala mansonii—derived enzyme extract in comparison to the efficacy of a known tyrosinase inhibitor, kojic acid. More specifically, the study was designed to study the lightening effect of these materials (reduction in tanning) using the fading of UV-B induced tan as a marker. Two samples are prepared. The first sample contains the composition described in Example 4. The second sample has the same composition as that described in Example 4 except that 2% kojic acid is substituted for the 1 % Exophiala mansonii enzyme extract. Nine volunteers participate in the study. […] Tanning is observed for six days after irradiation at which point color measurements are made using a Minolta Chromameter which measures the difference in reflectance of the skin, L. The change in the value of the difference in reflectance, ΔL*, is measured against a baseline skin color value of untreated irradiated skin measured on day 6. […] Chromameter readings are obtained on day 6, 8, 11, 13 and 15. The observed reflectance values for all the time points are recorded, and the area under the curve for each test site was calculated. The Whitening Factor is calculated as the area under the curve of the treated site subtracted from the untreated site, and is shown in FIG. 5.

SMILES: O=c1cc(CO)occ1O [kojic acid]
- Whitening Factor (area under the curve of the treated site subtracted from the untreated site): 1.8
